Assay results from publication PMC11697113, “The Hsc70 system maintains the synaptic SNARE protein SNAP-25 in an assembly-competent state and delays its aggregation [drawing 1]” (The Journal of Biological Chemistry, 2024).

Target: T1, Hsc70 (Homo sapiens, UniProt P11142)
T1 construct: 6X His-tag (TEV-cleavable) (cleaved yes); made in house; host or cells: E. coli Rosetta (DE3)
Assay: SNAP-25 cellulose-bound peptide array probed with Hsc70
Format: binding
Details: Hsc70 100 nM, 1 h, 25 °C; for Hsc70 binding of the SNAP-25 sequence in the peptide array: ADP/ATP, anti-Hsc70 chemiluminescence
Description: To explore in greater depth the binding sites for Hsc70 in SNAP-25, we screened a cellulose-bound peptide array spanning the full SNAP-25 sequence with 13-residue long peptides, overlapping by ten residues, and probed with Hsc70 in the presence of a two-fold excess of ATP and […] of ADP. The binding of Hsc70 to sites in the array was then visualized with an anti-Hsc70 primary antibody and a horse radish peroxidase-tagged secondary antibody to enable visualization by chemiluminescence (Fig. 4A). To quantitatively analyze the array, we used ImageJ (https://imagej.net/ij/) and plotted the intensity under the area for each spot. […] One site is located in the SNN, one in the LOOP, and one in the LOOP-SNC region (called SNC site) (Fig. 4A) […] (Fig. 1C). […] The binding site in the LOOP region is very close to the cysteine residues that become palmitoylated as SNAP-25 moves to its membrane-localized state. It is formally possible that Hsc70 binds to SNAP-25 in the initial un-palmitoylated state and dissociates upon palmitoylation and association with the plasma membrane. However, it can be assumed that the binding of this region to Hsc70 is not implicated in the events directly preceding SNARE complex assembly, as it will not be accessible to the chaperone. Therefore, we posit that chaperone binding to the SNN and SNC regions plays a mechanistic role in facilitating productive SNAP-25 association with the other SNARE proteins.
B, quantification of the spots from Figure 4A using ImageJ (Hsc70 (gray) and Hsc70-CSPαJ (dark gray)). Signals corresponding to SNN, Loop and Loop-SNC peptides are marked in orange, blue, and green, respectively. Orange, blue, and green lines at the top of the graph indicate the SNN, Loop and SNC regions, respectively. C, schematic representation of SNAP-25 showing the Hsc70 binding sequences (SNN (orange), Loop (black), and Loop-SNC (green)) identified in the peptide array. […]
A peptide array of SNAP-25 was obtained from CEM corporation. […] The chemiluminescence was captured in a G-box (Syngene), and the images were analyzed using ImageJ.

T1 sequence (P11142 whole entry): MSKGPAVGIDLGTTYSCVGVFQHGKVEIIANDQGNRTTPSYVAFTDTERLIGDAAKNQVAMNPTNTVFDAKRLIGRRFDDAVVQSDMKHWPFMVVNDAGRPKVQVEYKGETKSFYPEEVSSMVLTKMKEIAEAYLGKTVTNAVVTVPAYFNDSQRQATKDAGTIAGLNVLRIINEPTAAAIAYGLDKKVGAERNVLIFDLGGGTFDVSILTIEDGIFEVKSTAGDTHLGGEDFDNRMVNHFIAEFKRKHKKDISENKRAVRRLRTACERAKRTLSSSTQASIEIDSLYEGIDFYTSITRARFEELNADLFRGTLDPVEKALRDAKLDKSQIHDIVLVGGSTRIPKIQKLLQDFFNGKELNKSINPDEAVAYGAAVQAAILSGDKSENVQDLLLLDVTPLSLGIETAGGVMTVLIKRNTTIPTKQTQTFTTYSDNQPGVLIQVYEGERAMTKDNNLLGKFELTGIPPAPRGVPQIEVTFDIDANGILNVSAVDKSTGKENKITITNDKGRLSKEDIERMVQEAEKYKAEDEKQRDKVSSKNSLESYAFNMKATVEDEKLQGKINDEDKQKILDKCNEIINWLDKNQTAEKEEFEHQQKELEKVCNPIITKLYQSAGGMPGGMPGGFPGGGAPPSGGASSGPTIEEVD

Substance: RRMLQLVEESK [SNNP, peptide … from the SNN domain of SNAP-25]
- Hsc70 binding of the SNAP-25 sequence in the peptide array: strong binding

Substance: synaptosomal-associated 25 kDa protein [SNAP-25]
- number of major Hsc70 binding sites on SNAP-25 (13-residue peptides overlapping by ten, 20 μM ADP, 200 nM ATP, ECL, ImageJ, sites in SNN, LOOP and LOOP-SNC): Three major Hsc70 binding sites

Substance: EREQMAISGGFIRR [SNCP, peptide … from the LOOP-SNC domain of SNAP-25]
- Hsc70 binding of the SNAP-25 sequence in the peptide array: strong binding
